In PubChem BioAssay AID463203 (Broad Institute, 2010):
Activity calls are given as the source filed them.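 How the source made its calls: active means more than half of replicate measurements showing over 20% loss of kinase signal relative to plate controls; inconclusive means some but at most half of replicates over 20% loss; inactive means no replicate over 20% signal loss.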

Target: Glycogen synthase kinase-3 alpha (Homo sapiens) (UniProt P49840)
Experiment: concentration-response blocking of human GSK3A – biochemical, luminescence, cell-free homogeneous, retest, dose response (AID 463203)
Details: GSK-3 alpha enzyme, ADP-Glo luminescence, 60 min

Chain of Glycogen synthase kinase-3 alpha (Homo sapiens) (P49840 whole entry, looked up): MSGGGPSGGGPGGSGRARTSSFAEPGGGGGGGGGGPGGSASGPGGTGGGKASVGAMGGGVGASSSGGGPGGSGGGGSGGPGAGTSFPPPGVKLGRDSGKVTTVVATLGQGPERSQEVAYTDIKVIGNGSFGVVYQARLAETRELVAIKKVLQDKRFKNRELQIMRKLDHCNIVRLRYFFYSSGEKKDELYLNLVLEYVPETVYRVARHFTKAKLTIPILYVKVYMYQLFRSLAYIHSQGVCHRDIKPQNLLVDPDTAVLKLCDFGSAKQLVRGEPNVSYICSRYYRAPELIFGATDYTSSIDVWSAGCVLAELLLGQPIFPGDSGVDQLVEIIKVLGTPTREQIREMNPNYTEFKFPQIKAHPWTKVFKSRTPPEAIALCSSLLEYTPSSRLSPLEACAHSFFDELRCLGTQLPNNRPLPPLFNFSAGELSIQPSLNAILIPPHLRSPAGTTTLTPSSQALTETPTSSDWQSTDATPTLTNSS

| SMILES | AC50 |
| --- | --- |
| CC(=O)Nc1cccc(-c2csc(Nc3ccccn3)n2)c1 | > 30 µM (inactive) |
| O=C1Nc2ccccc2/C1=C/c1cnc(-c2ccccc2)[nH]1 | > 30 µM (inactive) |
| Cc1cc(C)n(CCC(=O)N=Nc2c(O)[nH]c3ccc(Br)cc23)n1 | 11.5 µM |
| CCCN(CCC)Cc1c(C(=O)N/N=C/C(C)=C\c2ccco2)nnn1-c1nonc1N | > 30 µM (inactive) |
| Nc1c(CO)nnn1-c1ccccc1 | 11.4 µM |
| Cc1cc(Nc2ccc(C(=O)O)cc2)nc(N)n1 | > 30 µM (inactive) |
| Brc1ccccc1/C=N/Nc1ccc2ccccc2n1 | > 30 µM (inactive) |
| CCOc1cccc(-c2c(C(=O)N/N=C(\C)c3ccncc3)nnn2-c2nonc2N)c1 | 1.45 µM |
| CC1=Nn2c(nc3sc4c(c3c2=O)CCCC4)SC1 | > 30 µM (inactive) |
| CCOC(=O)C1=C(O)/C(=C\c2sccc2C)N=C1C | > 30 µM (inactive) |
| CCCCOC(=O)C1=C(C)Nc2ncnn2C1c1ccc(OC)c(OC)c1 (stereo not given) | > 30 µM (inactive) |
| CC(C)N=C(NC#N)SCc1ccc(Br)cc1 | > 30 µM (inactive) |
| COc1cc(C(=O)NCC(=O)N/N=C(C)\C=C\c2ccccc2)cc(OC)c1OC | > 30 µM (inactive) |
| COc1ccccc1C(=O)NNC(=O)c1cccc(Br)c1 | > 30 µM (inactive) |
| CC1=C(C(=O)OCc2ccccc2)C(c2cccc(F)c2)NC(=O)N1 (stereo not given) | > 30 µM (inactive) |
| O=C1NC(=Nc2ccccc2Cl)S/C1=C\c1cccc([N+](=O)[O-])c1O | 24 µM |
| COC(=O)c1ccc(CSc2nnc(SCc3ccc(C(=O)OC)o3)s2)o1 | > 30 µM (inactive) |
| Clc1ccc(/C=N/Nc2ncnc3ccccc23)cc1Cl | > 30 µM (inactive) |
| c1ccc2c(c1)ccc1nnc(-c3ccc4c(c3)OCO4)n12 | > 30 µM (inactive) |
| O=C(c1ccco1)N(Cc1cccc([N+](=O)[O-])c1)c1ccc(Br)cc1 | > 30 µM (inactive) |
| Nc1ccc2nc(C3CCCCC3)[nH]c2c1 | > 30 µM (inactive) |
| CC1(C)CC(NC(=O)COc2ccccc2Cl)CC(C)(C)N1 | > 30 µM (inactive) |
| Nc1ccccc1-c1nc2ccccc2[nH]1 | > 30 µM (inactive) |
| COc1ccc(/C=C2\Oc3cc(OCC(=O)N4CCC[C@H]4C(=O)O)ccc3C2=O)cc1OC | > 30 µM (inactive) |
| Cc1cc(C)c(OCC(O)CNC(C)(C)C)c(C)c1 (stereo not given) | > 30 µM (inactive) |
| CCn1c2ccc(Cl)cc2c2nc3ccccc3nc21 | > 30 µM (inactive) |
| COc1ccc(C(=O)c2sc(NC(C)C)nc2N)cc1OC | 0.234 µM |

| SMILES | AC50 |
| --- | --- |
| COc1ccc(NC2CC(=O)NC2=O)cc1 (stereo not given) | > 30 µM (inactive) |
| Cc1n[nH]c(=S)n1/N=C/c1ccc(-c2ccccc2[N+](=O)[O-])o1 | 24.9 µM |
| CC1=CC(=C2C(=O)c3ccccc3C2=O)C=C(C)N1Cc1ccco1 | > 30 µM (inactive) |
| CN1CCN(Cc2c(C(=O)N/N=C/c3cccc(Br)c3)nnn2-c2nonc2N)CC1 | 20.2 µM |
| CN1CCN(c2ccc(NC(=O)c3ccc(Br)o3)cc2)CC1 | > 30 µM (inactive) |
| N#Cc1c(C#N)c(-c2ccccc2)n(-c2ccc(C(=O)O)cc2)c1N | 14.2 µM |
| Cc1nc2sc3c(c2c(=O)o1)CC(C)(C)OC3 | > 30 µM (inactive) |
| CCCNC(=O)NC(C(=O)OC)C12CC3CC(CC(C3)C1)C2 (stereo not given) | > 30 µM (inactive) |
| O=C(CSc1ncnc2sc3c(c12)CCC3)NCC1CCCO1 (stereo not given) | > 30 µM (inactive) |
| COc1ccccc1OCC(=O)Nc1sc2c(c1C(N)=O)CCC2 | > 30 µM (inactive) |
| COc1ccccc1CC(=O)N1CCOCC1 | > 30 µM (inactive) |
| O=c1[nH]c(=O)n(Cc2ccco2)c(O)c1/C=N/N1CCCCC1 | > 30 µM (inactive) |
| CCCC1=C(C(=O)OCC)C(c2ccc(O)cc2)n2ncnc2N1 (stereo not given) | 11.2 µM |
| CC1(C)CC(=O)C2=C(C1)Nc1ccccc1[S@]2=O | > 30 µM (inactive) |
| CCOc1cc(/C=N/NC(=O)N/N=C/c2ccc(O)c(OCC)c2)ccc1O | > 30 µM (inactive) |
| COc1ccccc1Nc1nc2c(s1)CCC2 | > 30 µM (inactive) |
| COc1ccc(O)c(-c2nc(N)nc(N)n2)c1 | 3.88 µM |
| CC1(C)CC(=O)C(C(c2ccncc2)C2C(=O)CC(C)(C)CC2=O)C(=O)C1 | > 30 µM (inactive) |
| COc1ccc(OC)c(C(=O)c2c(C)oc3cc(Br)c(O)c(CN(C)C)c23)c1 | > 30 µM (inactive) |
| CCCCSc1nc(N)c(C#N)c(-c2cccs2)c1C#N | > 30 µM (inactive) |
| CCOC(=O)N1CCN(C(=O)CSc2ccc3nnc(-c4ccccn4)n3n2)CC1 | > 30 µM (inactive) |
| C/C(CC(=O)N(C(C)C)C(C)C)=N\NC(=O)COc1ccc(Br)cc1Br | > 30 µM (inactive) |
| O=C(O)CN1C(=O)C2C3CC(C2C1=O)C1C(c2ccccc2)c2sc(=O)[nH]c2SC31 (stereo not given) | > 30 µM (inactive) |
| COCCn1c(SCC(=O)Nc2cc(C)on2)nc2ccccc21 | > 30 µM (inactive) |
| COc1ccc(-c2cc(=O)c3ccccc3s2)cc1 | > 30 µM (inactive) |
| Cc1ccc2nc(-c3ccncc3)[nH]c2c1 | > 30 µM (inactive) |
| O=c1[nH]nc(SCCS(=O)(=O)c2ccc(F)cc2)n1-c1ccccc1C(F)(F)F | 17.5 µM |

| SMILES | AC50 |
| --- | --- |
| CC1(C)CC(=O)C(C(C2=C(O)CC(C)(C)CC2=O)c2ccco2)C(=O)C1 (stereo not given) | > 30 µM (inactive) |
| CCSc1nc2c(c(=O)[nH]1)C(c1ccc(C)cc1)C1=C(CCCC1=O)N2 (stereo not given) | > 30 µM (inactive) |
| O=[N+]([O-])c1ccc(NCCCN2CCOCC2)nc1 | > 30 µM (inactive) |
| Cc1nc(SCC(=O)NCC2CCCO2)c2c3c(sc2n1)CCC3 (stereo not given) | > 30 µM (inactive) |
| CCOC(=O)c1cc(-c2ccc(F)cc2)n(CC(=O)NCc2cccnc2)c1C | > 30 µM (inactive) |
| O=C(Cn1ncc2c(=O)oc3ccccc3c21)N1CCc2ccccc2C1 | > 30 µM (inactive) |
| COc1ccc(C(=O)c2c(C(F)(F)F)oc3c2C(=O)c2ccccc2C3=O)cc1 | > 30 µM (inactive) |
| N#Cc1c(N)n(CCNC(=O)c2cccs2)c2nc3ccccc3nc12 | 25.7 µM |
| c1ccc(-c2nc3ccccc3[nH]2)cc1 | > 30 µM (inactive) |
| Cn1cnc(C(=O)NC2CCN(C(=O)OC(C)(C)C)CC2)c1C(=O)NC1CCN(C(=O)OC(C)(C)C)CC1 | > 30 µM (inactive) |
| NS(=O)(=O)c1ccc(-c2ccc(/C=C3\SC(=O)NC3=O)o2)cc1 | 5.29 µM |
| C/C(=N\NC(=O)c1nnn(-c2nonc2N)c1CN(C)c1ccccc1)c1ccc(O)cc1 | > 30 µM (inactive) |
| COc1ccc(-c2nnc(-c3ccccc3O)o2)cc1 | > 30 µM (inactive) |
| CN1/C(=C\C=C2C(=O)NC(=O)NC2=O)C(C)(C)c2ccccc21 | 27.9 µM |
| O=C(NCCCN1CCCC1)c1cc2c(Cl)nc3ccccc3c2s1 | > 30 µM (inactive) |
| C/C(=N\O)C(=O)NCCCn1ccnc1 | > 30 µM (inactive) |
| Cc1ccc(C(=O)N2NC(c3ccc(F)cc3)C3C(=O)N(c4ccc(C)c(C)c4)C(=O)C32)cc1 (stereo not given) | > 30 µM (inactive) |
| Nc1nc(Nc2cccc(F)c2)nc(NCc2ccco2)c1[N+](=O)[O-] | 4.08 µM |
| CCC(Oc1ccccc1)C(=O)Nc1ncc([N+](=O)[O-])s1 (stereo not given) | > 30 µM (inactive) |
| Cc1ccc(N=Nc2c(O)[nH]c3ccc(F)cc23)cc1 | > 30 µM (inactive) |
| O=[N+]([O-])c1ccc(NCCCN2CCOCC2)c2ncccc12 | > 30 µM (inactive) |
| CCn1nc(-c2ccccc2)nc2c(=O)n(C)c(=O)nc1-2 | 27.3 µM |
| CCOC(=O)c1sc(NC(=O)CSc2ncn[nH]2)c(C#N)c1C | > 30 µM (inactive) |
| CCOc1ccc(-c2c(C(=O)N/N=C(\C)c3cccnc3)nnn2-c2nonc2N)cc1 | > 30 µM (inactive) |
| CCNC(=S)NNC(=O)c1cccs1 | > 30 µM (inactive) |
| Cc1ccc(C2C3=C(CCCC3=O)Nc3[nH]c(=S)[nH]c(=O)c32)cc1 (stereo not given) | > 30 µM (inactive) |
| Cc1ccc(N=Nc2c(O)ccc3n[nH]nc23)cc1 | 4.23 µM |

| SMILES | AC50 |
| --- | --- |
| CC(=O)Nc1cccc(-c2csc(N)n2)c1 | > 30 µM (inactive) |
| Nc1nc2n(n1)C(c1ccc(Cl)cc1)CC(c1ccc(F)cc1)N2 (stereo not given) | > 30 µM (inactive) |
| Cc1cc(C)c(NC(=O)C2CCCN2CCOC(=O)c2cccc([N+](=O)[O-])c2)c(C)c1 (stereo not given) | 13.6 µM |
| c1ccc(N2CCN(c3cnc4ccccc4n3)CC2)cc1 | > 30 µM (inactive) |
| CN(Cc1c(C(=O)N/N=C/c2ccc(F)cc2)nnn1-c1nonc1N)C1CCCCC1 | > 30 µM (inactive) |
| Cc1cccc(-n2nc(C)c3c2NC2=C(C(=O)CCC2)C3c2ccccn2)c1 (stereo not given) | > 30 µM (inactive) |
| N/C(=N\OC(=O)c1ccc(Br)cc1)c1cccc([N+](=O)[O-])c1 | > 30 µM (inactive) |
| O=C(N/N=C/c1ccc(O)c(O)c1)C1CC1 | > 30 µM (inactive) |
| CC(C)OC(=O)CSc1nc(N)c(C#N)c(-c2ccco2)c1C#N | > 30 µM (inactive) |
| O=C1NC(=O)/C(=C\c2ccc(OCc3cccc(C(=O)O)c3)c(Cl)c2)N1 | 4.85 µM |
| COCCCNc1nc2nonc2nc1NCCSC | > 30 µM (inactive) |
| O=C(N/N=C/c1cccnc1)c1cccc(S(=O)(=O)N2CCCC2)c1 | > 30 µM (inactive) |
| COc1ccc(Nc2nc(-c3ccccc3)cs2)cc1 | > 30 µM (inactive) |
| CCCc1cc(NCc2ccccn2)n2c(nc3ccccc32)c1C#N | > 30 µM (inactive) |
| Cc1cc(N2CCN(c3ccccc3)CC2)n2cc(-c3ccccc3)nc2n1 | > 30 µM (inactive) |
| Nc1nc(SCCOc2ccccc2)n[nH]1 | > 30 µM (inactive) |
| COc1ccc(Nc2nc(N)nc(COc3ccc(OC)cc3)n2)cc1 | > 30 µM (inactive) |
| CCOC(=O)c1nnn(-c2nonc2N)c1COc1c(C=O)cccc1OC | 4.32 µM |
| COc1ccccc1Nc1nc(Cl)c(C=O)s1 | > 30 µM (inactive) |
| CSc1ccc(/C=C2\NC(=O)NC2=O)cc1 | 27.9 µM |
| Cc1ccc(S(=O)(=O)Nc2cc(Cl)c(O)c3ncccc23)cc1 | > 30 µM (inactive) |
| COc1ccc(C(=O)NCC(=O)N/N=C(C)\C=C\c2ccccc2)cc1OC | > 30 µM (inactive) |
| Cc1cc(/C=N/Nc2ccc([N+](=O)[O-])cn2)c(C)n1-c1cccc(C(=O)O)c1 | 14.6 µM |
| O=C(NCCCN1CCN(CCCNC(=O)c2ccc3c(c2)OCO3)CC1)c1ccc2c(c1)OCO2 | 27.7 µM |
